Results on two compounds are retold here after publication PMC4718634, “Murine GPRC6A Mediates Cellular Responses to L-Amino Acids, but Not Osteocalcin Variants” (PLoS ONE, 2016).

Entries after “also recorded” stand apart in the source; their conditions may differ. Like-named read-outs stand apart in the source and are kept apart here.

The test system of one assay is GLUTag cells. The assay is described as follows: GLP-1 release from GLUTag cells. The assay is classed as cell-based, murine. As to conditions: for GLP-1 release (summary): S1 Table. An outline of the steps: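 Matrigel-grown cells, where indicated pre-washed in Krebs-HEPES pH 7.2 with 5.5 mM glucose and 300 μM vildagliptin, were exposed to compound for 2 h at 37 °C. Secreted GLP-1 was measured by fluorescent ELISA (355/460 nm) and normalised to Bradford protein. LogEC50 values came from 3- or 4-parameter logistic fits.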

In another assay the target is T1, mGPRC6A (mouse GPRC6A) (Mus musculus, UniProt Q8K4Z6).
T1 sequence (Q8K4Z6 21-928): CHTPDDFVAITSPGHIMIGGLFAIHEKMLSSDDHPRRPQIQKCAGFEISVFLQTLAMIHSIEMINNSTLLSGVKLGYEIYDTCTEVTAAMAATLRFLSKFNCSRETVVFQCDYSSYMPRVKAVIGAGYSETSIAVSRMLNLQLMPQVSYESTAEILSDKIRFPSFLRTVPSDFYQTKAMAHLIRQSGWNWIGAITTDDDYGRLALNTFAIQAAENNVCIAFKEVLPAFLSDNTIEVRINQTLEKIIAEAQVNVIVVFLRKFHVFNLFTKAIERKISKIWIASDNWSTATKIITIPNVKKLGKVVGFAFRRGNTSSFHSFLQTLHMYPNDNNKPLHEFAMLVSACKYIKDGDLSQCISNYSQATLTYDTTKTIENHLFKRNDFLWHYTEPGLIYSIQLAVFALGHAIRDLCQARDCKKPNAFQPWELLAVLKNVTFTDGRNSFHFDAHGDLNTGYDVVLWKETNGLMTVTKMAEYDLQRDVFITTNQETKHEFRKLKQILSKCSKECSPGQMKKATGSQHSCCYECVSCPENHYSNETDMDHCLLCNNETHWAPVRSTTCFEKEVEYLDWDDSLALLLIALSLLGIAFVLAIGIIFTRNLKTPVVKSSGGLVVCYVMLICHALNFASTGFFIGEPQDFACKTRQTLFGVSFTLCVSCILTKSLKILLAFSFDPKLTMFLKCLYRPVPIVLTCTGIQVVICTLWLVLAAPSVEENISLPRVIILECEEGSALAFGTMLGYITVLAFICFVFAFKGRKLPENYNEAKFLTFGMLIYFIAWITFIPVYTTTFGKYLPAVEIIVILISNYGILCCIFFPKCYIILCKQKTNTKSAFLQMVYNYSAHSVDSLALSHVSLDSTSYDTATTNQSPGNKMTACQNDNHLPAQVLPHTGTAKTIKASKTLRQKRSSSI
Put plainly: Inositol phosphate (IP-One HTRF) accumulation, FlpIn-TREx-HEK293-mGPRC6A cells. The assay is classed as cell-based. As to conditions: for EC50: 30 min, HTRF, HBSS pH 7.2, mean ± SEM of at least three independent experiments, read-out: pEC50, inositol phosphate accumulation (converted). How it is done: pcDNA 5/FRT/TO constructs were isogenically integrated into a FlpIn-TREx-HEK293 cell line (Life Technologies). FlpIn-TREx-HEK293-mGPRC6A and FlpIn-TREx-HEK293-hGPRC6A cells were then selected using 600 μg/ml hygromycin and 5 μg/ml blasticidin and grown in culture medium consisting of Dulbecco’s Modified Eagle Medium (DMEM), supplemented with 10% (v/v) foetal bovine serum (FBS) at 37°C in 5% CO2 and were sub-cultured in a 1:3 ratio every 3–4 days. Cells were cultured overnight in the presence of 1 μg/ml tetracycline to induce GPRC6A expression. […] 48 h after transfection, cells were selected using 3 μg/ml puromycin and grown as above.
Inositol phosphate (IPX) accumulation experiments were performed using the IP-One HTRF® assay kit (Cisbio, France). Briefly, 24h after transfection with G proteins (as above), 10^5 cells were seeded per well in PDL-coated, 96-well white plates and incubated overnight. Cells were then washed 2 x 2h at 37°C in HBSS buffer (pH 7.2) containing 20 mM HEPES, 3.5 mM NaHCO3, 1 mM CaCl2 and 0.1% (w/v) BSA. Test compounds were then prepared in the kit stimulation buffer containing 2 mM CaCl2; cells were then incubated with 70 μl of drugs for 30 min, after which 15 μl of both IP1-D2 and Ab-Cryp were added to the cells, followed by a 1 h incubation at RT. Plates were read using an Envision plate reader (Perkin Elmer), using an HTRF protocol. Results were calculated from the 665nm / 620nm HTRF ratio (Ratio = A665nm/A620nm x 10^4) and expressed as a percentage of the maximal response obtained.
Concentration-response data were analysed using a three or four parameter logistic function (Motulsky & Christopoulos, 2004) to generate estimates of agonist potency (LogEC50). Data for all HEK293 assays represent the mean ± SEM of at least three independent experiments (except cell impedance, n = 2). For GLP-1 release, the data represent mean ± SEM of three to five independent experiments (except for OCN, wash; n = 2). For insulin release assays, data represent the mean ± SEM of three independent experiments (except for islet studies; n = 2). Insulin release data were normalised to the response to vehicle in either low or high [glucose]. Statistical analysis for GLP-1 release data were performed by one-way ANOVA, followed by Sidak’s multiple comparisons test (treating wash / no wash datasets separately). Statistical analyses for insulin release data were performed by two-way ANOVA (with [glucose] and drug treatment as group variables), followed by Sidak’s multiple comparisons test. Where only high [glucose] groups were evaluated, statistical analysis was by one-way ANOVA followed by Sidak’s multiple comparisons test.
(In general: In TR-FRET formats the signal depends on donor and acceptor labels being close together.)

The test system of assay [1] is non-tetracycline induced or parental HEK293 cells. The assay is described as follows: Inositol phosphate accumulation, parental or non-tetracycline-induced HEK293 cells. As to conditions: G protein-transfected parental HEK293 or non-tetracycline-induced cells; Fig 1B.

Consider “OCN: osteoblast-derived peptide, osteocalcin; variant not specified at the place (YLYQWLGAPVPYPDPLEPRREVCELNPDCDELADHIGFQEAYRRFYGPV; UniProt P02818 52-100, looked up)”, for which, in the assay on GLUTag cells (0.01–10 ng/ml, with or without cell washing, 2 h, Fig 6A), the “GLP-1 release, OCN” value is listed as “failed to increase GLP-1 release”. The “GLP-1 release (summary)” value with GLUTag cells is on record as “No response”.
`NCCC[C@H](N)C(=O)O` [L-ornithine]: the results for the EC50 at mGPRC6A (mouse GPRC6A) (co-expression of GαqG66D) and at mGPRC6A (mouse GPRC6A) (co-expression of wild-type Gαq) were 100 µM and 1000 µM, respectively. At mGPRC6A (mouse GPRC6A) (inositol phosphate accumulation), the “potency of L-ornithine with GαqG66D compared to wild-type Gαq” value was “ten-fold higher potency”. Further, the GLP-1 release result with GLUTag cells (L-ornithine 20 mM, 2 h, 37°C, cells washed, **P < 0.01 vs Vehicle, ELISA, Fig 6A) is recorded as “significantly increases GLP-1 release; also recorded: L-ornithine stimulated GLP-1 release”. In addition, in the assay with GLUTag cells, the “GLP-1 release (summary)” value was “response”. Besides, in assay [1], the “inositol phosphate response in non-expressing cells” value is given as “absent in non-tetracycline induced or parental HEK293 cells”.
